We go through one compound from publication PMC5849211 (Chemical Science, 2017).

For the data set, the system named is Saos-2 cells. In words: MTT assay, Saos-2 cells. It is filed as cell-based, human. Particulars: 0.5 mM levamisole, 3 h + 24 h, n = 3. (Tetrazolium assays rely on reduction of a dye to a coloured formazan, in cell work by metabolically active cells.)

As to `c1ccc([C@H]2CN3CCSC3=N2)cc1` [levamisole], the “cell viability, Saos-2, levamisole alone” value is on record as “no obvious effect on the cell viability alone”.
